Data reported in patent US9663496B2, “AMPK-activating heterocyclic compounds and methods for using the same” (Rigel Pharmaceuticals, Inc., priority 2010, dated 2017).

Molecular target: AMPK
Assay: AMPK activation, enzyme-linked immunosorbent assay
Format: biochemical
Conditions: EC50 for AMPK activation, ELISA
In short: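 Read-out: immunodetected kinase activation after compound exposure, run with commercial kit reagents.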

Structure (SMILES)	EC50 [nM]
O=C(NC1CCN(Cc2ccccc2)CC1)c1ccc(C(=O)N2CCN(c3ccccc3)CC2)cn1 [Compound 97, N-(1-benzylpiperidin-4-yl)-5-(4-phenylpiperazine-1-carbonyl)picolinamide]	1000 to 5000
CC(=O)Nc1cccc(OC2CCN(C(=O)c3ccc(C(=O)Nc4ccc(Oc5ccc(F)cc5)nc4)cn3)CC2)c1 [Compound 414, 6-(4-(3-acetamidophenoxy)piperidine-1-carbonyl)-N-(6-(4-fluorophenoxy)pyridin-3-yl)nicotinamide]	1000 to 5000
O=C(c1ccc(C(=O)N2CCN(CCc3ccccc3)CC2)nc1)N1CCN(c2ccccc2)CC1 [Compound 90, (4-phenethylpiperazin-1-yl)(5-(4-phenylpiperazine-1-carbonyl)pyridin-2-yl)methanone]	> 10000
O=C(NC1CCN(Cc2ccccc2)CC1)c1ccc(Nc2cccc(-c3ccccc3)c2)cn1 [Compound 114, N-(1-benzylpiperidin-4-yl)-5-(biphenyl-3-ylamino)picolinamide]	1000 to 5000
O=C(NC1CCN(Cc2ccc(F)cc2)CC1)c1ccc(C(=O)N2CCC(Oc3ccc(F)cc3)CC2)cn1 [Compound 180, N-(1-(4-fluorobenzyl)piperidin-4-yl)-5-(4-(4-fluorophenoxy)piperidine-1-carbonyl)picolinamide]	< 500
N#Cc1ccc(CN2CCC(NC(=O)c3ccc(C(=O)N4CCC(Oc5cccnc5)CC4)cn3)CC2)cc1 [Compound 283, N-(1-(4-cyanobenzyl)piperidin-4-yl)-5-(4-(pyridin-3-yloxy)piperidine-1-carbonyl)picolinamide]	< 500
CC(=O)c1ccc(Oc2ccc(NC(=O)c3ccc(C(=O)N4CCC(Oc5ccc(C(=O)N(C)C)cc5)CC4)nc3)cn2)cc1 [Compound 488, N-(6-(4-acetylphenoxy)pyridin-3-yl)-6-(4-(4-(dimethylcarbamoyl)phenoxy)piperidine-1-carbonyl)nicotinamide]	< 500
O=C(Nc1ccc(Oc2ccc(F)cc2)nc1)c1ccc(C(=O)N2CCC(Oc3ccc(S(F)(F)(F)(F)F)cc3)CC2)nc1 [Compound 496, N-(6-(4-fluorophenoxy)pyridin-3-yl)-6-(4-(4-(pentafluorosulfanyl)phenoxy)piperidine-1-carbonyl)nicotinamide]	< 500
COc1ccc(CN2CCC(NC(=O)c3ccc(C(=O)N4CCC(C(=O)c5ccc(N6CCCC6)cc5)CC4)nc3)CC2)cc1F [Compound 443, N-(1-(3-fluoro-4-methoxybenzyl)piperidin-4-yl)-6-(4-(4-(pyrrolidin-1-yl)benzoyl)piperidine-1-carbonyl)nicotinamide]	< 500
N#Cc1ccc(CN2CCC3(CC2)CCN(c2ccc(C(=O)N4CCN(Cc5ccc(F)cc5)CC4)cn2)C3)cc1 [Compound 31, 4-((2-(5-(4-(4-fluorobenzyl)piperazine-1-carbonyl)pyridin-2-yl)-2,8-diazaspiro[4.5]decan-8-yl)methyl)benzonitrile]	< 500
N#Cc1ccc(CN2CCC(NC(=O)c3ccc(C(=O)N4CCC(C(=O)c5ccc(C#N)cc5)CC4)cn3)CC2)cc1 [Compound 369, 5-(4-(4-cyanobenzoyl)piperidine-1-carbonyl)-N-(1-(4-cyanobenzyl)piperidin-4-yl)picolinamide]	< 500
N#Cc1ccc(CN2CCC(NC(=O)c3ccc(C(=O)N4CC[C@H](Oc5ccc(C#N)cc5)[C@@H](F)C4)cn3)CC2)cc1 (relative stereo) [Compound 279, N-(1-(4-cyanobenzyl)piperidin-4-yl)-5-((trans)-4-(4-cyanophenoxy)-3-fluoropiperidine-1-carbonyl)picolinamide]	< 500
N#Cc1ccc(CN2CCC(NC(=O)c3ccc(N4CCC(Oc5ccc(C#N)cc5)CC4)cn3)CC2)cc1 [Compound 165, N-(1-(4-cyanobenzyl)piperidin-4-yl)-5-(4-(4-cyanophenoxy)piperidin-1-yl)picolinamide]	< 500
N#Cc1ccc(CN2CCC(NC(=O)c3ccc(N4CCN(Cc5ccccc5)CC4)cn3)CC2)cc1 [Compound 110, 5-(4-benzylpiperazin-1-yl)-N-(1-(4-cyanobenzyl)piperidin-4-yl)picolinamide]	1000 to 5000
